Laboratory results from ChEMBL document CHEMBL1201862, “PubChem BioAssay data set” (2004).
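These data come from cells grown in 96-well plates and exposed to compound for 48 hours at five concentrations. GI50 marks 50% less growth.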 The source made the active and inactive calls. No stated cut-off is given here; in the data, active = GI50 up to about 1.1 µM and inactive = higher.

Experiments:
Experiment in all cases: NCI anticancer screen, dose series, 48 h
[1] = test system: RXF 393
[2] = test system: SN12C
[3] = test system: A549
[4] = test system: HOP-62
[5] = test system: KM12
[6] = test system: CCRF-CEM
[7] = test system: OVCAR-8
[8] = test system: Malme-3M
[9] = test system: SW-620
[10] = test system: EKVX
[11] = test system: IGROV-1
[12] = test system: RPMI-8226
[13] = test system: K562
[14] = test system: MCF7
[15] = test system: CAKI-1
[16] = test system: HCT-116
[17] = test system: UACC-257
[18] = test system: SNB-75
[19] = test system: NCI-H460
[20] = test system: NCI-H522

Measured: GI50

CCCCC(CC)C(=O)Oc1ccc(C(=O)c2ccccc2)c(O)c1 (stereo not given)
inactive: [1] 49.8 µM | [2] 44.4 µM | [3] 46.8 µM | [4] 55 µM | [5] 15.4 µM | [6] 43.6 µM | [7] 44.9 µM | [8] 40.6 µM | [9] 56.4 µM | [10] 35.6 µM | [11] 55.7 µM | [12] 15.1 µM | [13] 25.9 µM | [14] 60.4 µM | [15] 43.5 µM | [16] 43.3 µM | [17] 38.5 µM | [18] 23.3 µM | [19] 35 µM | [20] 31.7 µM

CCOC(=O)CCc1c(C)c2c(O)cc(O)cc2oc1=O
inactive: [1] > 78.9 µM | [2] > 100 µM | [3] > 100 µM | [4] > 100 µM | [5] > 100 µM | [6] 26 µM | [7] > 100 µM | [8] > 100 µM | [9] > 100 µM | [10] > 100 µM | [11] > 100 µM | [12] > 100 µM | [13] > 100 µM | [14] > 100 µM | [15] > 100 µM | [16] 15.8 µM | [17] > 100 µM | [18] > 100 µM | [19] > 100 µM | [20] > 100 µM

O=C(NN1C(=O)CSC1c1ccc(C(F)(F)F)cc1)c1ccncc1 (stereo not given)
inactive: [1] 97.3 µM | [2] > 100 µM | [3] > 100 µM | [4] > 100 µM | [5] > 100 µM | [6] > 100 µM | [7] > 100 µM | [8] > 100 µM | [9] > 100 µM | [10] > 100 µM | [11] > 100 µM | [12] > 65.6 µM | [13] > 100 µM | [14] > 100 µM | [15] > 100 µM | [16] > 100 µM | [17] > 100 µM | [18] > 100 µM | [19] > 100 µM | [20] > 100 µM
